From paper PMC10589313 (Nature Communications, 2023)
Values joined by “and” are separate entries in the source; they are usually repeats but may differ in a detail not shown here. Equal values may be shown once.

Assays:
[1] = system: H1R; settings: in words; cited from earlier work
[2] = target: T1, human H4R C98A mutant (Homo sapiens, UniProt Q9H3N8, C98A); experiment: TGFα shedding assay, H4R C98A mutant; type: cell-based
T1 construct: a mutant H4R (human, full-length, and untagged); expressed in transfected cells; host or cells: HEK293A
Procedure: (§1) The mutants were prepared using the primers listed in Supplementary Table 2. […] The chimeric Gαq/i1 subunit comprises the Gαq backbone and Gαi1-derived six-amino acid C-terminus and couples with Gi-coupled H4R but induces a Gq-dependent TGFα shedding response. After culturing for 1 day and incubating at 37 °C in a 5% CO2 incubator, the transfected cells were harvested by trypsinization, neutralized with Dulbecco’s modified Eagle’s medium containing 10% fetal calf serum (FCS) and penicillin–streptomycin, washed once with Hank’s balanced salt solution (HBSS) containing 5 mM of HEPES (pH 7.4), and resuspended in 6 mL of the HEPES-containing HBSS. The cell suspension was seeded into a 96-well plate at a volume of […] per well (typically, 48 wells per transfected cells) and incubated for 30 min in the CO2 incubator. Test compounds (10×, diluted in 0.01% BSA and 5 mM of HEPES-containing HBSS, […] volume) were added to duplicate wells and incubated for 1 h. After centrifugation, the conditioned medium ([…]) was transferred to an empty 96-well plate. AP reaction solution [10 mM of p-nitrophenylphosphate (p-NPP), 120 mM of Tris–HCl (pH 9.5), 40 mM of NaCl, and 10 mM of MgCl2] was dispensed into the cell culture plates and plates containing conditioned media ([…]). Absorbance was measured at 405 nm before and after a 1-h incubation period at 25 °C using a microplate reader (iMark™ Microplate Absorbance Reader; BioRad). Ligand-induced AP-TGFα release was calculated as previously described. The vehicle-treated AP-TGFα release signal was set as a baseline unless otherwise specified. AP-TGFα release signals were fitted with a four-parameter sigmoidal concentration-response curve, from which EC50 and Emax values were obtained, using GraphPad Prism 9 software (GraphPad Prism). Negative values of logarithmically transformed EC50 values (pEC50) were used to calculate the mean and standard error of independent experiments.
(§2) All functional study data were analyzed using Prism 9 (GraphPad) and are presented as mean ± standard error of the mean (SEM) of three independent experiments. Statistical analyses were performed using Prism 9 (GraphPad) with one-way analysis of variance followed by Dunnett’s post-hoc test. Values with p < 0.05 are considered statistically significant.

[3] = target: T2, human H4R E182N mutant (Homo sapiens, UniProt Q9H3N8, E182N); experiment: TGFα shedding assay, H4R E182N mutant; type: cell-based
T2 construct: a mutant H4R (human, full-length, and untagged); expressed in transfected cells; host or cells: HEK293A
Procedure: as §1
(§3) All functional study data were analyzed using Prism 9 (GraphPad) and are presented as mean ± standard error of the mean (SEM) of three independent experiments. […]

[4] = target: T3, human H4R F344A mutant (Homo sapiens, UniProt Q9H3N8, F344A); experiment: TGFα shedding assay, H4R F344A mutant; type: cell-based
T3 construct: a mutant H4R (human, full-length, and untagged); expressed in transfected cells; host or cells: HEK293A
Procedure: (§4) The mutants were prepared using the primers listed in Supplementary Table 2. […] The chimeric Gαq/i1 subunit comprises the Gαq backbone and Gαi1-derived six-amino acid C-terminus and couples with Gi-coupled H4R but induces a Gq-dependent TGFα shedding response. After culturing for 1 day and incubating at 37 °C in a 5% CO2 incubator, the transfected cells were harvested by trypsinization, neutralized with Dulbecco’s modified Eagle’s medium containing 10% fetal calf serum (FCS) and penicillin–streptomycin, washed once with Hank’s balanced salt solution (HBSS) containing 5 mM of HEPES (pH 7.4), and resuspended in 6 mL of the HEPES-containing HBSS. The cell suspension was seeded into a 96-well plate at a volume of […] per well (typically, 48 wells per transfected cells) and incubated for 30 min in the CO2 incubator. Test compounds (10×, diluted in 0.01% BSA and 5 mM of HEPES-containing HBSS, […] volume) were added to duplicate wells and incubated for 1 h. […] Absorbance was measured at 405 nm before and after a 1-h incubation period at 25 °C using a microplate reader (iMark™ Microplate Absorbance Reader; BioRad). Ligand-induced AP-TGFα release was calculated as previously described. […]
as §3

[5] = target: T4, human H4R W348Y mutant (Homo sapiens, UniProt Q9H3N8, W348Y); experiment: TGFα shedding assay, H4R W348Y mutant; type: cell-based
T4 construct: a mutant H4R (human, full-length, and untagged); expressed in transfected cells; host or cells: HEK293A
Procedure: as §1, §3

[6] = target: T5, human wild-type H4R (Homo sapiens, UniProt Q9H3N8); experiment: TGFα shedding assay, wild-type H4R; type: cell-based
T5 construct: a mutant H4R (human, full-length, and untagged); expressed in transfected cells; host or cells: HEK293A
Procedure: as §1, §2

[7] = target: T6, human H4R T99A mutant (Homo sapiens, UniProt Q9H3N8, T99A); experiment: TGFα shedding assay, H4R T99A mutant; type: cell-based
T6 construct: a mutant H4R (human, full-length, and untagged); expressed in transfected cells; host or cells: HEK293A
Procedure: as §1, §2

[8] = target: H4R; settings: read-out: binding affinity (Ki) for H4R; cited from earlier work
[9] = target: T7, human H4R E182A mutant (Homo sapiens, UniProt Q9H3N8, E182A); experiment: TGFα shedding assay, H4R E182A mutant; type: cell-based
T7 construct: a mutant H4R (human, full-length, and untagged); expressed in transfected cells; host or cells: HEK293A
Procedure: as §4, §3

[10] = target: T8, human H4R D94A mutant (Homo sapiens, UniProt Q9H3N8, D94A); experiment: TGFα shedding assay, H4R D94A mutant; type: cell-based
T8 construct: a mutant H4R (human, full-length, and untagged); expressed in transfected cells; host or cells: HEK293A
Procedure: as §1, §3

[11] = target: T9, human H4R N147Y mutant (Homo sapiens, UniProt Q9H3N8, N147Y); experiment: TGFα shedding assay, H4R N147Y mutant; type: cell-based; settings: for EC50: EC50 (nM)
T9 construct: a mutant H4R (human, full-length, and untagged); expressed in transfected cells; host or cells: HEK293A
Procedure: as §1, §2

[12] = target: T10, human H4R Q347A mutant (Homo sapiens, UniProt Q9H3N8, Q347A); experiment: TGFα shedding assay, H4R Q347A mutant; type: cell-based
T10 construct: a mutant H4R (human, full-length, and untagged); expressed in transfected cells; host or cells: HEK293A
Procedure: as §1, §2

[13] = target: T11, human H4R Y95A mutant (Homo sapiens, UniProt Q9H3N8, Y95A); experiment: TGFα shedding assay, H4R Y95A mutant; type: cell-based
T11 construct: a mutant H4R (human, full-length, and untagged); expressed in transfected cells; host or cells: HEK293A
Procedure: as §1, §3

[14] = system: H2R; settings: in words; cited from earlier work
[15] = target: T12, human H4R N147A mutant (Homo sapiens, UniProt Q9H3N8, N147A); experiment: TGFα shedding assay, H4R N147A mutant; type: cell-based; settings: for EC50: EC50 (nM)
T12 construct: a mutant H4R (human, full-length, and untagged); expressed in transfected cells; host or cells: HEK293A
Procedure: as §1, §2

[16] = target: T13, human H4R Q347G mutant (Homo sapiens, UniProt Q9H3N8, Q347G); experiment: TGFα shedding assay, H4R Q347G mutant; type: cell-based
T13 construct: a mutant H4R (human, full-length, and untagged); expressed in transfected cells; host or cells: HEK293A
Procedure: as §1, §2

[17] = target: T14, human H4R F344I mutant (Homo sapiens, UniProt Q9H3N8, F344I); experiment: TGFα shedding assay, H4R F344I mutant; type: cell-based
T14 construct: a mutant H4R (human, full-length, and untagged); expressed in transfected cells; host or cells: HEK293A
Procedure: as §1, §2

[18] = target: H3R; settings: read-out: binding affinity for H3R; cited from earlier work
[19] = Imetit (M) -5 (log concentration), raw replicate values

T9 sequence (Q9H3N8 whole entry N147Y): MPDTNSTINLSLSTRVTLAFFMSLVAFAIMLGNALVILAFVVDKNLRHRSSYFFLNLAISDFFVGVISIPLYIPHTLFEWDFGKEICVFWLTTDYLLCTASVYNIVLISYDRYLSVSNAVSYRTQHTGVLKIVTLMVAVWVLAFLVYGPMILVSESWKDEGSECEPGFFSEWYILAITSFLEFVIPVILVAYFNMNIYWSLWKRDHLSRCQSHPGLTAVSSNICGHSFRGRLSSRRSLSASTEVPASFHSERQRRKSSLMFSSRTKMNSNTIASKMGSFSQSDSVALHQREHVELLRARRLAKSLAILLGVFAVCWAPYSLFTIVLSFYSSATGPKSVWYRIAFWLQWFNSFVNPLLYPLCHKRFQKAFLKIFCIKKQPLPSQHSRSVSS
T8 sequence (Q9H3N8 whole entry D94A): as the sequence (Q9H3N8 whole entry N147Y) above, with D94A, Y147N counted along it
T2 sequence (Q9H3N8 whole entry E182N): as the sequence (Q9H3N8 whole entry N147Y) above, with Y147N, E182N counted along it
T4 sequence (Q9H3N8 whole entry W348Y): as the sequence (Q9H3N8 whole entry N147Y) above, with Y147N, W348Y counted along it
T10 sequence (Q9H3N8 whole entry Q347A): as the sequence (Q9H3N8 whole entry N147Y) above, with Y147N, Q347A counted along it
T13 sequence (Q9H3N8 whole entry Q347G): as the sequence (Q9H3N8 whole entry N147Y) above, with Y147N, Q347G counted along it
T12 sequence (Q9H3N8 whole entry N147A): as the sequence (Q9H3N8 whole entry N147Y) above, with Y147A counted along it
T7 sequence (Q9H3N8 whole entry E182A): as the sequence (Q9H3N8 whole entry N147Y) above, with Y147N, E182A counted along it
T14 sequence (Q9H3N8 whole entry F344I): as the sequence (Q9H3N8 whole entry N147Y) above, with Y147N, F344I counted along it
T1 sequence (Q9H3N8 whole entry C98A): as the sequence (Q9H3N8 whole entry N147Y) above, with C98A, Y147N counted along it
T5 sequence (Q9H3N8 whole entry): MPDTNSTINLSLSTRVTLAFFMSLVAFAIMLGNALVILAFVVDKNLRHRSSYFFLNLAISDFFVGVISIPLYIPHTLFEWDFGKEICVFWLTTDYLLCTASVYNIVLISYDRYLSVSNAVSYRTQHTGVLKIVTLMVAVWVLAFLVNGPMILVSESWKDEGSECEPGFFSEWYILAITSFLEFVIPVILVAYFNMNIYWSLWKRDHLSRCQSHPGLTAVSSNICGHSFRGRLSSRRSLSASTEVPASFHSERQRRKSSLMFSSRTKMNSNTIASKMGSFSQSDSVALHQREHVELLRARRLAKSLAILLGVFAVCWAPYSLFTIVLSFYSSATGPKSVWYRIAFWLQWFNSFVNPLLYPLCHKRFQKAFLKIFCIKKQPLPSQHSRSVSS
T6 sequence (Q9H3N8 whole entry T99A): as the sequence (Q9H3N8 whole entry N147Y) above, with T99A, Y147N counted along it
T3 sequence (Q9H3N8 whole entry F344A): as the sequence (Q9H3N8 whole entry N147Y) above, with Y147N, F344A counted along it
T11 sequence (Q9H3N8 whole entry Y95A): as the sequence (Q9H3N8 whole entry N147Y) above, with Y95A, Y147N counted along it

Compound: N=C(N)SCCc1cnc[nH]1 [Imetit, imetit]
- binding to H1R [1]: does not bind
- EC50 ([2]; C98A mutant): 479 nM
- fold of change ([2]; C98A mutant, EC50 relative to WT): 16.3 fold
- EC50 ([2]; EC50 (nM), C98A mutant): 486 nM
- Shedding assay response, C98A [2, 19]: 13.5967 and 12.9858 and 12.6952 and 16.5163 and 19.8944 and 18.7443 and 18.3535 and 16.3047 and 17.1057
- Emax ([2]; read-out: Emax (%) mean ± SEM): 17.1 ± 1.72%
- EC50 [3]: > 10000 nM
- Shedding assay response, E182N [3, 19]: -0.3367 and 1.68 and -1.08 and 4.253 and 4.399 and 3.645 and 9.053 and 3.546 and 4.747
- EC50 [4]: > 10000 nM
- Shedding assay response, F344A [4, 19]: 3.594 and 4.917 and 1.113 and -1.672 and 3.266 and -0.2412 and 0.127 and -2.198 and -1.529
- EC50 [5]: > 10000 nM
- Shedding assay response, W348Y [5, 19]: 5.993 and 7.639 and 4.713 and 7.402 and 9.589 and 3.141 and 9.854 and 11.9801 and 8.402
- signaling activity at mutant, in words ([5]; W348Y (H1R mimic) mutant vs wild type): loss of imetit activity
- EC50 ([6]; EC50 (nM), WT H4R): 29.9 nM
- EC50 ([6]; EC50 (nM), hH4R, single experiments (3 columns), source data Figure 4e-f): 30.7 nM and 23 nM
- Shedding assay response, WT [6, 19]: 14.3865 and 12.6364 and 12.8296 and 15.366 and 17.4678 and 18.6444 and 14.3694 and 15.3398 and 17.1099
- fold of change ([6]; WT H4R, EC50 relative to WT): 1 fold
- EC50 ([6]; pEC50, hH4R, single experiments (3 columns), source data Figure 4e-f): 35.8 nM and 30.7 nM
- EC50 ([6]; pEC50 mean ± SEM, WT H4R, three independent experiments): 29.5 nM
- Emax ([6]; read-out: Emax (%) mean ± SEM): 14.9 ± 1.19%
- EC50 [7]: 76 nM
- Shedding assay response, T99A [7, 19]: 14.3742 and 14.7391 and 15.3687 and 10.9344 and 9.709 and 12.0103 and 13.6177 and 15.7879 and 16.7579
- fold of change ([7]; T99A mutant, EC50 relative to WT): 2.5 fold
- Emax ([7]; read-out: Emax (%) mean ± SEM): 13.7 ± 1.67%
- Ki [8]: 2.7 nM
- EC50 [9]: > 10000 nM
- Shedding assay response, E182A [9, 19]: 0.5777 and -0.6527 and 0.544 and 1.716 and -0.08867 and -2.204 and 4.0352 and 2.359 and 1.291
- EC50 [10]: > 10000 nM
- Shedding assay response, D94A [10, 19]: -0.3449 and 0.03257 and -1.499 and 0.2405 and 1.217 and -0.1126 and 0.7155 and 3.933 and 12.3814
- EC50 ([11]; N147Y mutant): 319 nM
- EC50 ([11]; N147Y, single experiments, source data Figure 4e-f): 632 nM and 127 nM and 200 nM
- Shedding assay response, N147Y [11, 19]: 5.667 and 6.627 and 11.6194 and 11.6248 and 10.5662 and 9.653 and 14.7457 and 12.0475 and 16.0734
- fold of change ([11]; N147Y mutant, EC50 relative to WT): 10.7 fold
- Emax ([11]; read-out: Emax (%) mean ± SEM): 11.1 ± 1.47%
- EC50 ([12]; EC50 (nM), Q347A mutant): 12.7 nM
- Shedding assay response, Q347A [12, 19]: 17.2563 and 18.9409 and 18.4053 and 16.608 and 19.8188 and 22.6245 and 22.4962 and 23.3465 and 23.6643
- fold of change ([12]; Q347A mutant, EC50 relative to WT): 0.4 fold
- EC50 ([12]; pEC50 mean ± SEM, Q347A mutant): 12.3 nM
- Emax ([12]; read-out: Emax (%) mean ± SEM): 19.3 ± 1.1%
- EC50 [13]: > 10000 nM
- Shedding assay response, Y95A [13, 19]: 0.2008 and 4.141 and 6.475 and 5.892 and -1.081 and 3.761 and 1.333 and 3.151 and 12.3655
- binding to H2R [14]: does not bind
- EC50 ([15]; N147A mutant): 116 nM
- EC50 ([15]; N147A, single experiments, source data Figure 4e-f): 137 nM and 107 nM and 104 nM
- Shedding assay response, N147A [15, 19]: 17.6838 and 20.1153 and 13.587 and 17.1019 and 17.2369 and 16.9193 and 20.3122 and 17.3343 and 19.4779
- fold of change ([15]; N147A mutant, EC50 relative to WT): 3.9 fold
- Emax ([15]; read-out: Emax (%) mean ± SEM): 17.2 ± 0.52%
- EC50 ([16]; EC50 (nM), Q347G mutant): 6.2 nM
- EC50 ([16]; EC50 (nM), Q347G, single experiments, source data Figure 4e-f): 1.75 nM and 12.3 nM and 4.7 nM
- Shedding assay response, Q347G [16, 19]: 13.312 and 10.4592 and 11.4881 and 12.2257 and 13.3616 and 12.7037 and 13.9485 and 10.6151 and 26.3814
- signaling activity at mutant, in words ([16]; Q347G (H1R/H2R type) mutant vs wild type): slight increase
- fold of change ([16]; Q347G mutant, EC50 relative to WT): 0.2 fold
- EC50 ([16]; pEC50, Q347G, single experiments, source data Figure 4e-f): 12.3 nM
- EC50 ([16]; pEC50 mean ± SEM, Q347G mutant): 4.68 nM
- Emax ([16]; read-out: Emax (%) mean ± SEM): 12.9 ± 1.22%
- EC50 [17]: > 10000 nM
- signaling activity at mutant, in words ([17]; F344I (H1R mimic) mutant vs wild type): loss of imetit activity
- Shedding assay response, F344I [17, 19]: 1.112 and 4.483 and 7.185 and 5.21 and 4.635 and 3.564 and 4.726 and 4.072 and 2.0567
- Ki [18]: 0.3 nM
